Laboratory results taken from patent US4368203A, “Antibiotics and derivatives thereof having β-lactamase inhibitory activity and production thereof” (priority 1977, dated 1983).
Converted amounts (≈) assume the structure as drawn. “Also recorded” adds a separate entry of the source. Where two headings read alike, the source gives them in different places.

Columns and labels:
[1] = system: Gram-positive and Gram-negative bacteria; test: Antibiotic spectra (summary in words); format: cell-based; conditions: for Antibiotic activity against Gram-negative bacteria resistant to β-lactam antibiotics: genera Citrobacter, Proteus, Klebsiella, Enterobacter, Serratia as named at the place; for Antibiotic activity against Gram-positive bacteria: genera Staphylococcus, Diplococcus, Streptococcus, Bacillus as named at the place
[2] = Stability (general statements); format: physicochemical; conditions: general statement
[3] = system: Alcaligenes faecalis B-326; test: MIC, broth dilution method; format: cell-based; conditions: Alcaligenes faecalis, B326, read-out: Minimum inhibitory concentration
Procedure: (§1) Sodium salt of the antibiotic PS-7 was dissolved and diluted with the BRAIN HEART INFUSION BROTH "Eiken" at a concentration between 5 μg/ml and 100 μg/ml. The solution was further diluted with the same medium to obtain a series of geometric concentrations. To the serial dilutions were added the seed cultures prepared by shaking culture of various test microorganisms shown in Tab. 5 in the BRAIN HEART INFUSION GROTH at 28° C. for 18 hours, the final cell count being about 1×10^5 /ml. […] The lowest concentration at which no cell growth was observed was the minimum inhibitory concentration of the antibiotic PS-7 on the test microorganism. […] . The minimum inhibitory concentrations on test strains were determined in the same manner as mentioned above. […] For the comparison, the results on the known antibiotics Cephazolin and Cefoxitin are also given in the same table.

[4] = system: Citrobacter freundii E-9; test: MIC, broth dilution method; format: cell-based; conditions: Citrobacter freundii, read-out: Minimum inhibitory concentration
Procedure: as §1

[5] = Solubility; format: physicochemical; conditions: antibiotic (sodium salt); for Solubility in organic solvents: solvents named in the value
Description: The results are as shown as below:
The results are as shown below:

[6] = system: β-lactamase-producing, β-lactam-resistant bacteria; test: Increase of the antibiotic activity of other antibiotics (summary in words); format: cell-based; conditions: β-lactamase-producing bacteria such as Proteus vulgaris, Serratia marcescens
Procedure: (§2) 10 ml of 2.5 folds diluted nutrient agar (pH 7.0) containing 50 μg/ml of penicillin G or cephaloridine was seeded with the β-lactamase producing and β-lactam-resistant microorganisms and poured in a 9 cm Petri dish to provide the bio-assay agar plate. […] A control assay plate was similarly prepared without penicillin G or cephaloridine. As reference antibiotics, 10,000 μg/ml of penicillin G or 20 μl of cephaloridine were disc-assayed under the same conditions.
(§3) Cepholoridine was added to a 2.5-times diluted nutrient agar, pH 7.0 and the medium was inoculated with a β-lactam-producing strain that produceds β-lactamase. Ten ml of the medium was spread and solidified in a petri dish of 9 cm in diameter to prepare an assay plate. […] Each 20 μl of the solution and its 2- and 4-times diluted solutions was soaked in a pulp disc of 8 mm in diameter. To the surface of the above nutrient agar was placed the pulp disc and the size of the growth inhibitory zone around the disc was examined after incubation at 35° C. for 18 hours. […] In addition, for the comparison, a similar experiment was also performed with a pulp disk soaked with 20 μl of 10,000 μg/ml Penicillin G or Cepholoridine solution in place of the antibiotic PS-7.

[7] = Acute toxicity, intraperitoneal administration; format: in vivo, DDY male mice
[8] = system: Proteus vulgaris P-5; test: Potentiating and synergistic effect, pulp disc inhibition zone on agar plate; format: cell-based; conditions: for Diameter of inhibitory zone, No addition / Diameter of inhibitory zone, Cephaloridine-added: Table 8; for Diameter of inhibitory zone, No addition: medium without cephaloridine; for Diameter of inhibitory zone, Cephaloridine-added: cephaloridine in the agar
Procedure: as §2, §3

[9] = system: Enterobacter cloacae E-16; test: MIC, broth dilution method; format: cell-based; conditions: Enterobacter cloacae, read-out: Minimum inhibitory concentration
Procedure: Sodium salt of the antibiotic PS-7 was dissolved and diluted with the BRAIN HEART INFUSION BROTH "Eiken" at a concentration between 5 μg/ml and 100 μg/ml. The solution was further diluted with the same medium to obtain a series of geometric concentrations. To the serial dilutions were added the seed cultures prepared by shaking culture of various test microorganisms shown in Tab. 5 in the BRAIN HEART INFUSION GROTH at 28° C. for 18 hours, the final cell count being about 1×10^5 /ml. […] The lowest concentration at which no cell growth was observed was the minimum inhibitory concentration of the antibiotic PS-7 on the test microorganism. […] The minimum inhibitory concentrations on test strains were determined in the same manner as mentioned above.

[10] = system: Staphylococcus aureus Smith; test: In vivo activity in intraperitoneally infected mice; design: species or system DDY male mice; conditions: for ED50: Staphylococcus aureus, sc, mice infected i.p. with 5×10^5 cells/mouse, subcutaneous injection just after infection, read-out: 50% curative dose (CD50); for Therapeutic effect in infected mice: mice infected with pathogenic Gram-positive bacteria
Procedure: Soon after infection, an aqueous solution of the antibiotic PS-5 sodium salt preparation was subcutaneously injected.
Activity of the antibiotic PS-7 obtained above was determined using mice infected with Staphylococcus aureus Smith at 5×10^5 cells a mouse intraperitoneally. Sodium salt of the antibiotic PS-7 was administered to the mice subcutaneously immediately after the infection.
The tritylation product of antibiotic PS-6 was subcutaneously injected just after infection. The 50% curative dose on male DDY mice (SHIZUOKA) was 5.5 mg/kg.
The tritylation product of antibiotic PS-7 was subcutaneously injected just after infection. The 50% curative dose on make DDY mice (SHIZUOKA) was 4.5 mg/kg.

[11] = disc x2 (2-times diluted PS-7 solution)
[12] = disc x4 (4-times diluted PS-7 solution)

Compound: CCC1C(=O)N2C(C(=O)O)=C(SC=CNC(C)=O)CC12 (centres unmarked) [Antibiotic PS-7]
- Antibiotic activity against Gram-negative bacteria of the genus Alcaligenes (Comamonas) [1]: high antimicrobial activity
- Antibiotic activity against Gram-negative bacteria resistant to β-lactam antibiotics [1]: high antimicrobial activity
- Antibiotic activity against Gram-positive bacteria [1]: very high antimicrobial activity
- Stability [2]: somewhat labile; also recorded: more stable in the salt form than in the free acid state
- MIC ([3]; Table 7, no unit in the head): 0.78 µg/mL (≈ 2.63 µM)
- MIC ([4]; E9, Table 7, no unit in the head, lactamase-producing strain): 3.13 µg/mL (≈ 10.6 µM)
- Solubility in water [5]: Soluble in water at pH6-9
- Solubility in organic solvents [5]: practically insoluble in benzene, acetone and ethyl acetate
- Synergistic enhancement of the activity of penicillin G or cephaloridine (β-lactam antibiotics) [6]: ability to enhance antimicrobial activity of other antibiotics; also recorded: evident enhancement of antimicrobial activity
- Acute toxicity ([7]; DDY male mice, dose not given): No acute toxicity
- Acute toxicity ([7]; mice, 500 mg/kg): no acute toxicity
- Diameter of inhibitory zone, No addition ([8]; disc x1 (undiluted PS-7 solution, 50 μg/ml or 29 μg/ml, 20 μl)): 0.0 mm
- Diameter of inhibitory zone, Cephaloridine-added ([8]; disc x1 (undiluted PS-7 solution, 20 μl)): 19.0 mm
- Diameter of inhibitory zone, Cephaloridine-added [8, 11]: 15.0 mm
- Diameter of inhibitory zone, No addition [8, 11]: 0.0 mm
- Diameter of inhibitory zone, Cephaloridine-added [8, 12]: 11.0 mm
- Diameter of inhibitory zone, No addition [8, 12]: 0.0 mm
- MIC ([9]; E16, Table 7, no unit in the head, lactamase-producing strain): 6.25 µg/mL (≈ 21.1 µM)
- ED50 [10]: 7.5 mg/kg
- Therapeutic effect in infected mice [10]: marked therapeutic effect

Compound: CC(=O)NCCSC1=C(C(=O)O)N2C(=O)C(C(C)C)C2C1 (centres unmarked) [Antibiotic PS-6]
- Antibiotic activity against Gram-negative bacteria of the genera Klebsiella, Proteus [1]: good activity
- Antibiotic activity against Gram-negative bacteria of the genus Alcaligenes (Comamonas) [1]: very strong activity
- Antibiotic activity against Gram-negative bacteria resistant to β-lactam antibiotics [1]: strong activity
- Antibiotic activity against Gram-positive bacteria [1]: very strong activity
- Stability [2]: somewhat labile; also recorded: more stable in the salt form than in the free acid state
- MIC ([3]; Table 5, 35° C. 20 hours): 1.56 µg/mL (≈ 4.99 µM)
- MIC ([4]; E9, 20 h, Table 5, betalactamase producer): 12.5 µg/mL (≈ 40 µM)
- Solubility in water [5]: soluble in water at pH 6 to 9
- Solubility in organic solvents [5]: substantially insoluble in benzene, acetone and ethylacetate
- Synergistic enhancement of the activity of penicillin G or cephaloridine (β-lactam antibiotics) [6]: showed clearly the synergistic effect; also recorded: ability to increase the antibiotic activity of other antibiotics
- Acute toxicity ([7]; mice, 500 mg/kg): no toxicity
- Acute toxicity ([7]; mice, 500 mg/kg, listed as PS-6 sodium salt): No acute toxicity
- zone of inhibition at 240 µg/mL ([8]; Proteus vulgaris, P5, Table 6, plate without penicillin G or cephaloridine, 8 mm disc, 20 μl, PS-6 240 μg/ml, reference antibiotics 10,000 μg/ml, 35° C. 18 hours, read-out: Inhibition zone, Control): 14 mm
- Inhibition zone, with cephaloridine ([8]; Table 6, agar containing 50 μg/ml of cephaloridine, disc 20 μl, PS-6 240 μg/ml, reference antibiotics 10,000 μg/ml): 28.5 mm
- Inhibition zone, with penicillin G ([8]; Table 6, agar containing 50 μg/ml of penicillin G, disc 20 μl, PS-6 240 μg/ml, reference antibiotics 10,000 μg/ml): 30.0 mm
- MIC ([9]; E16, 20 h, Table 5, betalactamase producer): 25 µg/mL (≈ 80 µM)
- ED50 [10]: 5.2 mg/kg
- Therapeutic effect in infected mice [10]: marked therapeutic effect
